Results from patent US11746098B2, “Proteasome activity enhancing compounds” (Proteostasis Therapeutics, Inc., priority 2018, dated 2023).

Molecular target: USP14 (Homo sapiens, UniProt P54578)
Assay: USP14 Inhibition Assay
Type: biochemical
Settings: average value from a minimum of two experimental determinations, read-out: IC50 Category
Source text: The activity of the compound described herein to inhibit USP14 can be measured using previously described methodology [B. H. Lee et al. Nature 2010, 467 (9), 179, the contents of which are expressly incorporated by reference herein].
Example 6: USP14 Inhibition Assay

Row | SMILES | IC50 [µM]
1 | COc1cc(NS(=O)(=O)c2ccc(-n3c(C)cc(C(=O)CN4CCCCC4)c3C)cc2)nc(OC)n1 [Compound 1, N-(2,6-Dimethoxypyrimidin-4-yl)-4-(2,5-dimethyl-3-(2-(piperidin-1-yl)acetyl)-1H-pyrrol-1-yl)benzenesulfonamide] | > 5
2 | COc1cc(NS(=O)(=O)c2ccc(-n3c(C)cc(C(=O)CN4CCCC4)c3C)cc2)nc(OC)n1 [Compound 4, N-(2,6-Dimethoxypyrimidin-4-yl)-4-(2,5-dimethyl-3-(2-(pyrrolidin-1-yl)acetyl)-1H-pyrrol-1-yl)benzenesulfonamide] | > 5
3 | Cc1cc(C(=O)CN2CCCCC2)c(C)n1-c1cccc2ccccc12 [Compound 5, 1-(2,5-Dimethyl-1-(naphthalen-1-yl)-1H-pyrrol-3-yl)-2-(piperidin-1-yl)ethanone] | > 5
4 | Cc1cc(C(=O)CN2CCCCC2)c(C)n1-c1ccc(O)cc1 [Compound 7, 1-(1-(4-Hydroxyphenyl)-2,5-dimethyl-1H-pyrrol-3-yl)-2-(piperidin-1-yl)ethanone] | > 5
5 | Cc1cc(C(=O)CN2CCCC2)c(C)n1-c1cccc2ccccc12 [Compound 8, 1-(2,5-Dimethyl-1-(naphthalen-1-yl)-1H-pyrrol-3-yl)-2-(pyrrolidin-1-yl)ethanone] | > 5
6 | Cc1cc(C(=O)CN[C@H](C)C2CCCCC2)c(C)n1-c1ccc(Cl)cc1 [Compound 11, (R)-1-(1-(4-Chlorophenyl)-2,5-dimethyl-1H-pyrrol-3-yl)-2-((1-cyclohexylethyl)amino)ethan-one] | > 5
7 | Cc1cc(C(=O)CN2CCCCC2)c(C)n1-c1ccc(S(C)(=O)=O)cc1 [Compound 12, 1-(2,5-Dimethyl-1-(4-(methylsulfonyl)phenyl)-1H-pyrrol-3-yl)-2-(piperidin-1-yl)ethanone] | > 5
8 | Cc1cc(C(=O)CN2CCC(O)CC2)c(C)n1-c1ccc(S(C)(=O)=O)cc1 [Compound 13, 1-(2,5-Dimethyl-1-(4-(methylsulfonyl)phenyl)-1H-pyrrol-3-yl)-2-(4-hydroxypiperidin-1-yl)ethanone] | > 5
9 | Cc1cc(C(=O)CN2CCCCC2)c(C)n1-c1cc(F)cc(F)c1 [Compound 14, 1-(1-(3,5-Difluorophenyl)-2,5-dimethyl-1H-pyrrol-3-yl)-2-(piperidin-1-yl)ethanone] | > 5
10 | Cc1cc(C(=O)CN2CCC(O)CC2)c(C)n1-c1cc(F)cc(F)c1 [Compound 15, 1-(1-(3,5-Difluorophenyl)-2,5-dimethyl-1H-pyrrol-3-yl)-2-(4-hydroxypiperidin-1-yl)ethanone] | > 5
11 | Cc1cc(C(=O)CN2CCCCC2)c(C)n1-c1cc(Cl)cc(Cl)c1 [Compound 17, 1-(1-(3,5-Dichlorophenyl)-2,5-dimethyl-1H-pyrrol-3-yl)-2-(piperidin-1-yl)ethanone] | > 5
12 | Cc1cc(C(=O)CN2CCC(O)CC2)c(C)n1-c1cc(Cl)cc(Cl)c1 [Compound 18, 1-(1-(3,5-Dichlorophenyl)-2,5-dimethyl-1H-pyrrol-3-yl)-2-(4-hydroxypiperidin-1-yl)ethanone] | > 5
13 | Cc1cc(C(=O)CN2CCCC2)c(C)n1-c1ccc(O)cc1 [Compound 19, 1-(1-(4-Hydroxyphenyl)-2,5-dimethyl-1H-pyrrol-3-yl)-2-(pyrrolidin-1-yl)ethanone] | > 5
14 | Cc1cc(C(=O)CN2CCC(O)CC2)c(C)n1-c1ccc(O)cc1 [Compound 20, 1-(1-(4-Hydroxyphenyl)-2,5-dimethyl-1H-pyrrol-3-yl)-2-(4-hydroxypiperidin-1-yl)ethanone] | > 5
15 | Cc1cc(Cl)cc(C)c1-n1ccc(C(=O)CN2CCCC2)c1 [Compound 23, 1-(1-(4-Chloro-2,6-dimethylphenyl)-1H-pyrrol-3-yl)-2-(pyrrolidin-1-yl)ethanone] | > 5
16 | Cc1cc(Cl)cc(C)c1-n1ccc(C(=O)CN2CCC(O)CC2)c1 [Compound 24, 1-(1-(4-Chloro-2,6-dimethylphenyl)-1H-pyrrol-3-yl)-2-(4-hydroxypiperidin-1-yl)ethanone] | > 5
17 | Cc1cc(Cl)cc(C)c1-n1cccc1C(=O)CN1CCCC1 [Compound 28, 1-(1-(4-Chloro-2,6-dimethylphenyl)-1H-pyrrol-2-yl)-2-(pyrrolidin-1-yl)ethanone] | > 5
18 | Cc1cc(Cl)cc(C)c1-n1cccc1C(=O)CN1CCC(O)CC1 [Compound 29, 1-(1-(4-Chloro-2,6-dimethylphenyl)-1H-pyrrol-2-yl)-2-(4-hydroxypiperidin-1-yl)ethanone] | > 5
19 | Cc1cc(C(=O)CN2CCC(C(=O)OCc3ccccc3)CC2)c(C)n1C1CCC1 [Compound 37, Benzyl 1-(2-(1-cyclobutyl-2,5-dimethyl-1H-pyrrol-3-yl)-2-oxoethyl)piperidine-4-carboxylate] | > 5
20 | Cc1cc(C(=O)CC2CCCNC2)c(C)n1-c1ccc(Cl)cc1 (stereo not shown) [Compound 38, 1-(1-(4-Chlorophenyl)-2,5-dimethyl-1H-pyrrol-3-yl)-2-(piperidin-3-yl)ethanone] | > 5
21 | Cc1cc(C(=O)CC2CCNCC2)c(C)n1-c1ccc(Cl)cc1 [Compound 39, 1-(1-(4-Chlorophenyl)-2,5-dimethyl-1H-pyrrol-3-yl)-2-(piperidin-4-yl)ethanone] | > 5
22 | Cc1cc(C(=O)CNCC2COC(C)(C)O2)c(C)n1-c1ccc(Cl)cc1 (stereo not shown) [Compound 40, 1-(1-(4-Chlorophenyl)-2,5-dimethyl-1H-pyrrol-3-yl)-2-(((2,2-dimethyl-1,3-dioxolan-4-yl)methyl)amino)ethanone] | > 5
23 | Cc1cc(C(=O)CNCCOCc2ccccc2)c(C)n1-c1ccc(C#N)cc1 [Compound 42, 4-(3-(2-((2-(Benzyloxy)ethyl)amino)acetyl)-2,5-dimethyl-1H-pyrrol-1-yl)benzonitrile] | > 5
24 | Cc1cc(C(=O)CN(CCOCc2ccccc2)CC(=O)c2cc(C)n(-c3ccc(C#N)cc3)c2C)c(C)n1-c1ccc(C#N)cc1 [Compound 43, 4,4′-(3,3′-(2,2′-((2-(Benzyloxy)ethyl)azanediyl)bis(acetyl))bis(2,5-dimethyl-1H-pyrrole-3,1-diyl))dibenzonitrile] | > 5
25 | Cc1cc(C(=O)C[N+]2(C)CCCCC2)c(C)n1-c1ccc(Cl)cc1 [Compound 44, 1-(2-(1-(4-Chlorophenyl)-2,5-dimethyl-1H-pyrrol-3-yl)-2-oxoethyl)-1-methylpiperidin-1-ium Iodide] | > 5
26 | Cc1cc(C(=O)CN2CCCCC2)c(C)n1[C@H]1CC[C@@H](C(=O)OCc2ccccc2)CC1 [Compound 45, cis-Benzyl 4-(2,5-dimethyl-3-(2-(piperidin-1-yl)acetyl)-1H-pyrrol-1-yl)cyclohexanecarboxylate] | > 5

Further lines, results first:

Row | IC50 [µM] | SMILES
27 | > 5 | COc1cc(NS(=O)(=O)c2ccc(-n3c(C)cc(C(=O)CN4CCC(O)CC4)c3C)cc2)nc(OC)n1 [Compound 2, N-(2,6-Dimethoxypyrimidin-4-yl)-4-(3-(2-(4-hydroxypiperdin-1-yl)acetyl)-2,5-dimethyl-1H-pyrrol-1-yl)benzenesulfonamide]
28 | > 5 | Cc1cc(C(=O)CN2CCC[C@@H]2C(N)=O)c(C)n1-c1ccc(Cl)cc1 [Compound 3, (R)-1-(2-(1-(4-Chlorophenyl)-2,5-dimethyl-1H-pyrrol-3-yl)-2-oxoethyl)pyrrolidine-2-carboxamide]
29 | > 5 | Cc1cc(C(=O)CN2CCC(O)CC2)c(C)n1-c1cccc2ccccc12 [Compound 9, 1-(2,5-Dimethyl-1-(naphthalen-1-yl)-1H-pyrrol-3-yl)-2-(4-hydroxypiperidin-1-yl)ethanone]
30 | > 5 | Cc1cc(C(=O)CN2CCCC2)c(C)n1-c1cc(Cl)cc(Cl)c1 [Compound 16, 1-(1-(3,5-Dichlorophenyl)-2,5-dimethyl-1H-pyrrol-3-yl)-2-(pyrrolidin-1-yl)ethanone]
31 | > 5 | Cc1cc(C(=O)CN2CCC(O)CC2)c(C)n1-c1ccc(C(F)(F)F)cc1 [Compound 21, 1-(2,5-Dimethyl-1-(4-(trifluoromethyl)phenyl)-1H-pyrrol-3-yl)-2-(4-hydroxypiperidin-1-yl)ethanone]
32 | > 5 | Cc1cc(C(=O)CN2CCCC2)c(C)n1-c1cc(F)cc(F)c1 [Compound 22, 1-(1-(3,5-Difluorophenyl)-2,5-dimethyl-1H-pyrrol-3-yl)-2-(pyrrolidin-1-yl)ethanone]
33 | > 5 | Cc1cc(C(=O)CN2CCC(C(=O)O)CC2)c(C)n1-c1ccc(Cl)cc1 [Compound 25, 1-(2-(1-(4-Chlorophenyl)-2,5-dimethyl-1H-pyrrol-3-yl)-2-oxoethyl)piperidine-4-carboxylic acid]
34 | > 5 | Cc1cc(Cl)cc(C)c1-n1ccc(C(=O)CN2CCCCC2)c1 [Compound 26, 1-(1-(4-Chloro-2,6-dimethylphenyl)-1H-pyrrol-3-yl)-2-(piperidin-1-yl)ethanone]
35 | > 5 | Cc1cc(Cl)cc(C)c1-n1cccc1C(=O)CN1CCCCC1 [Compound 27, 1-(1-(4-Chloro-2,6-dimethylphenyl)-1H-pyrrol-2-yl)-2-(piperidin-1-yl)ethanone]
36 | > 5 | Cc1cc(C(=O)CN2CCCCC2)c(C)n1[C@H]1CC[C@@H](F)CC1 [Compound 32, 1-(1-(cis-4-Fluorocyclohexyl)-2,5-dimethyl-1H-pyrrol-3-yl)-2-(piperidin-1-yl)ethanone]
37 | > 5 | Cc1ccc(C(=O)CN2CCCCC2)n1-c1ccc(Cl)cc1 [Compound 33, 1-(1-(4-Chlorophenyl)-5-methyl-1H-pyrrol-2-yl)-2-(piperidin-1-yl)ethanone]
38 | > 5 | Cc1cc(C(=O)CN2CCCCC2)c(C)n1C1CCC1 [Compound 35, 1-(1-Cyclobutyl-2,5-dimethyl-1H-pyrrol-3-yl)-2-(piperidin-1-yl)ethanone]
39 | > 5 | Cc1cc(C(=O)CN2CCC(O)CC2)c(C)n1C1CCC1 [Compound 36, 1-(1-Cyclobutyl-2,5-dimethyl-1H-pyrrol-3-yl)-2-(4-hydroxypiperidin-1-yl)ethanone]
40 | > 5 | Cc1cc(C(=O)CNCCOCc2ccccc2)c(C)n1-c1ccc(Cl)cc1 [Compound 41, 2-((2-(Benzyloxy)ethyl)amino)-1-(1-(4-chlorophenyl)-2,5-dimethyl-1H-pyrrol-3-yl)ethanone]
